Experimental data reported in patent publication US6737383B1, “Herbicidal oxadiazolidines” (priority 1999, dated 2004).

Tests used:
cocklebur = assay: Test B pre/postemergence cocklebur; type: in vivo, Xanthium strumarium; conditions: for Cocklebur plant response rating: scale of 0 to 10 where 0 is no effect and 10 is complete control
In short: (§1)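 Test chemicals in a non-phytotoxic solvent mixture with surfactant were sprayed preemergence onto planted seeds and postemergence onto plants 2 to 18 cm tall (1- to 4-leaf stage). After twelve to sixteen days in a greenhouse, injury was visually rated against untreated controls from 0 (no effect) to 10 (complete control).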

crabgrass = assay: Test B pre/postemergence crabgrass; type: in vivo, Digitaria sanguinalis; conditions: for Crabgrass plant response rating: scale of 0 to 10 where 0 is no effect and 10 is complete control
In short: as §1

wheat = assay: Test B pre/postemergence wheat; type: in vivo, Triticum aestivum; conditions: for Wheat plant response rating: scale of 0 to 10 where 0 is no effect and 10 is complete control
In short: as §1

wild oat [1] = assay: Test B pre/postemergence wild oat; type: in vivo, Avena fatua; conditions: for Wild oats plant response rating: scale of 0 to 10 where 0 is no effect and 10 is complete control
In short: as §1

winter wheat [2] = assay: Test E winter wheat; type: in vivo, Triticum aestivum; conditions: Postemergence, 0 to 100 scale, 0 is no effect, 100 is complete control
In short: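 Postemergence: 60:40 sandy loam/greenhouse potting mix, 1- to 4-leaf stage. Formulation: solvent plus surfactant. Assessment: visual comparison with untreated controls at ~21–28 days.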

blackgrass = assay: Test E blackgrass; type: in vivo, Alopecurus myosuroides; conditions: Preemergence
green foxtail = assay: Test E green foxtail; type: in vivo, Setaria viridis; conditions: Preemergence
Italian ryegrass = assay: Test E Italian ryegrass; type: in vivo, Lolium multiflorum; conditions: Preemergence
winter wheat [3] = assay: Test E winter wheat; type: in vivo, Triticum aestivum; conditions: Preemergence
wild oat [4] = assay: Test E wild oat; type: in vivo, Avena fatua; conditions: Preemergence
winter barley = assay: Test E winter barley; type: in vivo, Hordeum vulgare; conditions: Preemergence
[5] = Postemergence, Rate 125 g/ha, scale 0 to 10, 0 is no effect, 10 is complete control
[6] = Postemergence, Rate 250 g/ha, scale 0 to 10, 0 is no effect, 10 is complete control
[7] = Preemergence, Rate 62 g/ha, scale 0 to 10 (0 no effect, 10 complete control)
[8] = Rate 500 g/ha, Postemergence, scale 0 to 10, 0 no effect, 10 complete control
[9] = Rate 125 g/ha, 0 to 100 scale (0 no effect, 100 complete control)

Structure (SMILES): CC(C)N(C(=O)n1oc(=O)n(C(C)CCl)c1=O)c1ccc(F)cc1 (stereo not drawn) [Compound 367]
- Plant response rating, Cocklebur (cocklebur; [5]): 0
- Plant response rating, Cocklebur (cocklebur; [6]): 0
- Plant response rating, Cocklebur (cocklebur; [7]): 0
- Cocklebur plant response rating (0 to 10 scale) (cocklebur; Preemergence, Rate 125 g/ha): 0
- Cocklebur plant response rating (cocklebur; Preemergence, Rate 250 g/ha): 0
- Cocklebur plant response rating (cocklebur; Rate 62 g/ha, Postemergence): 0
- Plant response rating, Cocklebur (cocklebur; [8]): 2
- Plant response rating, Crabgrass (crabgrass; [5]): 2
- Plant response rating, Crabgrass (crabgrass; [6]): 8
- Plant response rating, Crabgrass (crabgrass; [7]): 6
- Crabgrass plant response rating (0 to 10 scale) (crabgrass; Preemergence, Rate 125 g/ha): 9
- Crabgrass plant response rating (crabgrass; Preemergence, Rate 250 g/ha): 10
- Crabgrass plant response rating (crabgrass; Preemergence, Rate 500 g/ha): 10
- Crabgrass plant response rating (crabgrass; Rate 62 g/ha, Postemergence): 0
- Plant response rating, Crabgrass (crabgrass; [8]): 8
- Plant response rating, Wheat (wheat; [5]): 0
- Plant response rating, Wheat (wheat; [6]): 0
- Plant response rating, Wheat (wheat; [7]): 0
- Wheat plant response rating (0 to 10 scale) (wheat; Preemergence, Rate 125 g/ha): 0
- Wheat plant response rating (wheat; Preemergence, Rate 250 g/ha): 0
- Wheat plant response rating (wheat; Preemergence, Rate 500 g/ha): 0
- Wheat plant response rating (wheat; Rate 62 g/ha, Postemergence): 0
- Plant response rating, Wheat (wheat; [8]): 6
- Plant response rating, Wild oats (wild oat [1]; [5]): 0
- Plant response rating, Wild oats (wild oat [1]; [6]): 0
- Plant response rating, Wild oats (wild oat [1]; [7]): 0
- Wild oats plant response rating (0 to 10 scale) (wild oat [1]; Preemergence, Rate 125 g/ha): 3
- Wild oats plant response rating (wild oat [1]; Preemergence, Rate 250 g/ha): 3
- Wild oats plant response rating (wild oat [1]; Preemergence, Rate 500 g/ha): 7
- Wild oats plant response rating (wild oat [1]; Rate 62 g/ha, Postemergence): 0
- Plant response rating, Wild oats (wild oat [1]; [8]): 8
- Plant response rating, Wheat (winter) (winter wheat [2]; Rate 125 g/ha): 50
- Plant response rating, Wheat (winter) (winter wheat [2]; Rate 250 g/ha): 40
- Plant response rating, Blackgrass (blackgrass; [9]): 60
- Plant response rating, Blackgrass (blackgrass; Rate 250 g/ha, 0 to 100 scale): 30
- Plant response rating, Green foxtail (green foxtail; [9]): 70
- Plant response rating, Green foxtail (green foxtail; Rate 250 g/ha, 0 to 100 scale): 50
- Plant response rating, I. Ryegrass (Italian ryegrass; [9]): 60
- Plant response rating, I. Ryegrass (Italian ryegrass; Rate 250 g/ha, 0 to 100 scale): 60
- Plant response rating, Wheat (winter) (winter wheat [3]; [9]): 60
- Plant response rating, Wheat (winter) (winter wheat [3]; Rate 250 g/ha, 0 to 100 scale): 40
- Plant response rating, Wild oat (wild oat [4]; [9]): 55
- Plant response rating, Wild oat (wild oat [4]; Rate 250 g/ha, 0 to 100 scale): 50
- Plant response rating, Barley (winter) (winter barley; [9]): 20
- Plant response rating, Barley (winter) (winter barley; Rate 250 g/ha, 0 to 100 scale, 0 no effect, 100 complete control): 30
